Results taken from patent US20230129364A1, “PYRROLIDINE DERIVATIVE, AND PHARMACEUTICAL COMPOSITION FOR PREVENTING OR TREATING BETA-AMYLOID OR TAU PROTEIN-ASSOCIATED DISEASES CONTAINING SAME” (YONSEI UNIVERSITY, UNIVERSITY - INDUSTRY FOUNDATION (UIF), priority 2019, published 2023).

How the values were obtained:
Format in all cases: biochemical
[1] = biological target: T1, aggregated beta-amyloid; human Aβ 1-42 (UniProtKB-P05067, a.a. 672-713) (Homo sapiens, UniProt P05067); assay: Beta-amyloid aggregate degradation test (thioflavin T assay); conditions: pre-aggregated Aβ, further 3 days at 37° C., ThT fluorescence vs control = 100%
T1 construct: UniProtKB-P05067, a.a; 672-713
Experimental: Aβ (beta-amyloid; human A3 1-42 monomer (UniProtKB-P05067, a.a. 672-713)) was dissolved at a concentration of 10 mM in dimethyl sulfoxide (DMSO), and the resulting solution was diluted to 250 μM using distilled water, and then incubated at 37° C. for 3 days to induce aggregation. The aggregated beta-amyloid was added with each test compound in an amount of 50 or 500 μM such that the final concentration reached 25 μM, and was further cultured at 37° C. for 3 days to induce reaction. The aggregate degradation effect of each test compound was measured by thioflavin T (ThT) assay (see Example 2). Specifically, 25 μL of the reaction solution was charged in each well of a 96-well plate for fluorescence analysis and 75 μL of the prepared thioflavin-T solution was charged in each well. The reaction was allowed to proceed at room temperature in a dark laboratory for 5 minutes and then fluorescence values were measured at an excitation wavelength of 450 nm and an emission wavelength of 485 nm using a multi-mode microplate reader. The ratio of the fluorescence value measured in the group obtained by treating with each test compound to 100% of the fluorescence value of the group (control group) obtained by treating only with beta-amyloids and inducing aggregation for 3 days is set forth in Table 4 below: […]

[2] = biological target: T2, aggregated tau protein (wild-type K18) (Homo sapiens, UniProt P10636); assay: Tau protein aggregate degradation test (thioflavin T assay); conditions: pre-aggregated tau, further 5 days at 37° C., ThT fluorescence vs control = 100%
T2 construct: Tau protein (wild-type K18)
Experimental: Tau protein (wild-type K18) was dissolved in phosphate-buffered saline (PBS, pH 7.4) at a concentration of 1 mg/mL to prepare a tau protein solution. 0.1 mg/mL of heparin and 100 μM dithiothreitol (DTT) were added to 1 mg/mL of the tau protein solution, followed by incubation at 37° C. for 5 days to induce tau protein aggregation. The aggregated tau protein was mixed with each test compound in an amount of 50 or 500 μM such that the final concentration reached 0.5 mg/mL, followed by further incubation at 37° C. for 5 days to induce reaction.
The degradation effect of each compound on the tau aggregates was measured by thioflavin T (ThT) assay (see Example 2). More specifically, 25 μL of the reaction solution was charged in each well of a 96-well plate for fluorescence analysis and 75 μL of the prepared thioflavin-T solution was charged in each well. The reaction was allowed to proceed at room temperature in a dark laboratory for 5 minutes and then fluorescence values were measured at an excitation wavelength of 450 nm and an emission wavelength of 485 nm using a multi-mode microplate reader.
The ratio of the fluorescence value measured in the group obtained by treating with each test compound to 100% of the fluorescence value of the group (control group) obtained by treating only with tau proteins and inducing aggregation for 5 days is set forth in Table 6 below: […]

[3] = biological target: T3, Tau protein (wild-type K18) (Homo sapiens, UniProt P10636); assay: Tau protein aggregation inhibition test (thioflavin T assay); conditions: heparin/DTT-induced aggregation, 37° C. 5 days, ThT fluorescence vs tau-only control = 100%
T3 construct: Tau protein (wild-type K18)
Experimental: Tau protein (wild-type K18) was dissolved in phosphate-buffered saline (PBS, pH 7.4) at a concentration of 1 mg/mL to prepare a tau protein solution. In order to induce aggregation of tau proteins, 0.1 mg/mL of heparin and 100 μM dithiothreitol (DTT) were added to 1 mg/mL of the tau protein solution, followed by incubation at 37° C. for 5 days. At this time, the result was mixed with each test compound (50, 500 μM) such that the final concentration reached 0.5 mg/mL, followed by further incubation.
The inhibitory effect of each compound against tau aggregation was measured based on the intensity of fluorescence by thioflavin T (ThT) assay (see Example 2). More specifically, 25 μL of the reaction solution was charged in each well of a 96-well plate for fluorescence analysis, and 75 μL of the prepared thioflavin-T solution was then charged in each well. The reaction was allowed to proceed at room temperature in a dark laboratory for 5 minutes, and then fluorescence values were measured at an excitation wavelength of 450 nm and an emission wavelength of 485 nm using a multi-mode microplate reader.
The ratio of the fluorescence value measured in the group obtained by treating with each test compound to 100% of the fluorescence value of the group (control group) obtained by treating only with tau proteins and inducing aggregation for 5 days is set forth in Table 5 below: […]

T3 sequence (P10636 561-685 limits assumed): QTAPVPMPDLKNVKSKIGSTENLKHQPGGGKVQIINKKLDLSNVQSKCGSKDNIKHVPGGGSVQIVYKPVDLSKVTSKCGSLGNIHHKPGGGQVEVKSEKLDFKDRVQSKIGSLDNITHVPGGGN
T2 sequence (P10636 561-685 limits assumed): as above
T1 sequence (P05067 672-713): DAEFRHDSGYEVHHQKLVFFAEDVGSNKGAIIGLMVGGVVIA

Row | Beta-amyloid aggregate degradation activity (% of control) ([1]; 500 uM test compound) | ThT fluorescence remaining (% of control) ([2]; 50 uM test compound) | ThT fluorescence remaining (% of control) ([2]; 500 uM test compound) | Tau aggregation remaining (ThT fluorescence, % of tau-only control) ([3]; 50 uM test compound) | Tau aggregation remaining (ThT fluorescence, % of tau-only control) ([3]; 500 uM test compound) | Beta-amyloid aggregate degradation activity (% of control) ([1]; 50 uM test compound) | Compound
1 | 90.19 % of control | 66.25 % of control | 80.59 % of control | 61.551 % of control | 66.948 % of control | – | CCN1C(=O)C(Cc2ccc3occc3c2)NC1=S (stereo not shown) [DN205353, 5-(benzofnran-5-ylmethyl)-3-ethyl-2-thioxoimidazolidin-4-one]
2 | 28.97 % of control | 50.44 % of control | 31.04 % of control | 43.22 % of control | 40.21 % of control | 74.64 % of control | CCN1C(=O)/C(=C/c2c[nH]c3ccccc23)NC1=S [DN204811, (Z)-5-((1H-indol-3-yl)methylene)-3-ethyl-2-thioxoimidazolidin-4-one]
3 | 92.41 % of control | 40.39 % of control | 33.92 % of control | 81.42 % of control | 56.3 % of control | – | CCN1C(=O)/C(=C/c2c[nH]c3ncccc23)NC1=S [DN204816, (Z)-5-((1H-pyrrolo[2,3-b]pyridin-3-yl)methylene)-3-ethyl-2-thioxoimidazolidin-4-one]

Second part, the compound before the results:

Row | Compound | Beta-amyloid aggregate degradation activity (% of control) ([1]; 500 uM test compound) | ThT fluorescence remaining (% of control) ([2]; 50 uM test compound) | ThT fluorescence remaining (% of control) ([2]; 500 uM test compound) | Tau aggregation remaining (ThT fluorescence, % of tau-only control) ([3]; 50 uM test compound) | Tau aggregation remaining (ThT fluorescence, % of tau-only control) ([3]; 500 uM test compound) | Beta-amyloid aggregate degradation activity (% of control) ([1]; 50 uM test compound)
4 | O=C1NC(=S)SC1Cc1c[nH]c2ncccc12 (stereo not shown) [DN204304, 5-((1H-pyrrolo[2,3-b]pyridin-3-yl)methyl)-2-thioxothiazolidin-4-one] | 73.11 % of control | 67.53 % of control | 50.23 % of control | 70.66 % of control | 39.54 % of control | 97.47 % of control
5 | O=C1NC(=O)/C(=C/c2c[nH]c3cccnc23)S1 [DN204289, (Z)-5-((1H-pyrrolo[3,2-b]pyridin-3-yl)methylene)thiazolidine-2,4-dione] | 54.07 % of control | 57.57 % of control | 52.83 % of control | 60.71 % of control | 46.16 % of control | 83.66 % of control
6 | O=C1NC(=S)S/C1=C\c1ccoc1 [DN204298, (Z)-5-(furan-3-ylmethylene)-2-thioxothiazolidin-4-one] | 7.79 % of control | 61.36 % of control | 29.73 % of control | 71.163 % of control | 33.817 % of control | 59.37 % of control
7 | O=C1NC(=S)S/C1=C\c1c[nH]c2ccccc12 [DN204296, (Z)-5-((1H-indol-3-yl)methylene)-2-thioxothiazolidin-4-one] | 17.28 % of control | 30.26 % of control | 16.48 % of control | 13.243 % of control | 4.984 % of control | 68.90 % of control
8 | O=C1NC(=S)SC1Cc1cc[nH]c1 (stereo not shown) [DN204303, 5-((1H-pyrrol-3-yl)methyl)-2-thioxothiazolidin-4-one] | 33.65 % of control | 81.77 % of control | 39.19 % of control | 82.4 % of control | 29.14 % of control | 90.66 % of control
